According to US20110065749A1, “METHOD AND PHARMACEUTICAL COMPOSITION FOR TREATMENT OF MENTAL DISORDERS” (ACTIVE CO. LTD., priority 2008, published 2011):
Structures can show the parent of a compound that is named as a salt.

Experiments:
Assay type in all cases: in vivo, human
[1] = system: Fibromyalgia; assay: Case 18: fibromyalgia (4) patient; details: before Cephadol
Text: Case 18: Fibromyalgia (4)
A person (housewife) is a patient with depression, having received regular medical treatment since seven years ago. […] However, a diagnosis with autoimmune disease or inflammatory disease was negative from their blood test. Due to back pain and fingertip pain, they were unable to make household work, and it was painful for them to hold even a light object by hand. They had pain at 15 points among the 18 tender points of the whole body, and was diagnosed with fibromyalgia. […] They had to stay in bed all day long, and such a condition lasted for the long term.

[2] = system: Alcoholism; assay: Case 6: alcoholism patient; details: before Cephadol
Text: Case 6: Alcoholism Patient was a office worker, who was drinking 1 to 2 liters of beer and 3 to 5 glasses of distilled spirit or whisky with water every day. They were drinking alcohol in daytime on Sundays, and suffering from a complication of liver dysfunction.

[3] = system: Alzheimer-Type Dementia; assay: Case 4: Alzheimer-type dementia patient
Text: Case 4: Alzheimer-Type Dementia

[4] = system: Bulimia; assay: Case 8: bulimia (2) patient; details: 40 mg
Text: Patient was a person, who had been suffering from bulimia. The bulimia persisted even after their marriage and childbearing.

[5] = system: depression; assay: Case 9: depressed symptoms patient, HAMD; details: 40 mg, before Cephadol
Text: For evaluation of the state of depression, for example, Hamilton's rating scale for depression (HAMD) is available. The HAMD was developed by Max Hamilton in 1960 for the purpose of measuring the severity of a patient diagnosed with depression (Hamilton, M., Journal of Neurology, Neurosurgery & Psychiatry, 23-56-62 (1960) and Hamilton, M., “Development of rating scale for primary depressive illness”, British Journal of Social and Clinical Psychology, 6: 278-296 (1967)). In view of its high usefulness, it is a representative scale of evaluation for depression, widely used in clinical researches and practices. The 17 item version is used for clinical trials of antidepressants in Japan, whereas the 21 item version and the 24 item version are used in Europe or other countries.
When the severity is calculated using Hamilton's rating scale for depression (HAMD), each item is evaluated with three grades of 0-2, or five grades of 0-4. For example, the case is diagnosed as severe where the point is 20 or higher and, as the point decreases, the symptom is diagnosed as being improved.
Case 9: Depressed Symptoms
Administration to the patient of 75 mg/day Cephadol® reduced the HAMD score from 20 points to 7 points after 3 days.

[6] = system: Fibromyalgia; assay: Case 16: fibromyalgia (2) patient; details: before Cephadol
Text: […] There were persistent systemic malaise, lassitude, depressed mood, sleeplessness, neck stiffness and systemic pain. Their score of depression on Hamilton D scale was 25 to 28. No hematological abnormality was detected. As a result of overall judgment based on examinations including a tender point examination, they were diagnosed as having fibromyalgia. They were unresponsive to tricyclic or tetracyclic antidepressants, SSRIs, SNRIs, and Moclobemide. Then, they continued the treatment with 60 mg/day fluoxetine. […] It was concluded that the onset of their depression was due to the systemic pain, and the depression was improved by the drastic improvement of the systemic pain.

[7] = system: manic state of bipolar I disorder; assay: Case 3: manic-depressive illness patient; details: 1,200 mg, before Cephadol
Description: Case 3: Manic-Depressive Illness Patient was a person, who had continuously been in a manic state of bipolar I disorder for over one month. An antiepileptic drug, or 1,200 mg of Limas®, was ineffective. Antipsychotic drugs were not usable due to significant side effects. […] When they discontinued the administration of Cephadol®, the manic state appeared after 5 days.

[8] = system: Fibromyalgia; assay: Case 15: fibromyalgia (1) patient; details: maximum doses, three years, before Cephadol
Description: They then visited the inventor's clinic. When the inventor started the treatment with 75 mg/day Cephadol®, systemic pain of the patient was improved in two days. […] As a result, they became able to perform usual household work, go outside, and further make a trip.

SMILES: CCN(CC)C(=O)C1(c2ccccc2)CC1CN (stereo not shown) [Milnaciplan]
- back pain [1]: rather deteriorated their back pain

SMILES: N#CN [Cyanamide]
- efficacy of earlier drugs on alcoholism [2]: without any efficacy

SMILES: COc1cc2c(cc1OC)C(=O)C(CC1CCN(Cc3ccccc3)CC1)C2 (stereo not shown) [donepezil hydrochloride]
- dementia ([3]; donepezil hydrochloride together with 50 mg Cephadol before sleeping): significant improvement of the dementia
- side effect that made treatment difficult ([3]; donepezil hydrochloride without Cephadol): excitatory side effect

SMILES: CNCCC(Oc1ccc(C(F)(F)F)cc1)c1ccccc1.Cl (stereo not shown) [Prozac®]
- bulimia ([4]; before Cephadol): slightly improved the bulimia
- frequency of overeating and emesis ([4]; previously two to three times a day): reduced to once daily

SMILES: Fc1ccc([C@@H]2CCNC[C@H]2COc2ccc3c(c2)OCO3)cc1 [Paxil®, paroxetine]
- depression [5]: without any improvement

SMILES: O=C(NCCN1CCOCC1)c1ccc(Cl)cc1 [Moclobemide]
- response to earlier drugs [6]: unresponsive

SMILES: O=C([O-])[O-].[Li+].[Li+] [Limas®]
- efficacy on manic state [7]: ineffective

SMILES: CN(C)CCC=C1c2ccccc2CCc2ccccc21 [Triptanol]
- response of fibromyalgia to earlier medicines [8]: without any improvement
